Assay results from article PMC7269503 (Antimicrobial Agents and Chemotherapy, 2020).
≈ marks a conversion by molar mass, not a printed value.

Legend:
[1] = tested on: OPC-167832-resistant isolates of M. tuberculosis H37Rv; assay type: cell-based
[2] = female, ICR, mouse, in vivo, po, 2.5 mg/kg

O=C1CCc2c(OC[C@]3(O)CCN(c4c(F)cc(Cl)cc4F)C[C@H]3O)ccc(F)c2N1 [OPC-167832]
MIC against Rv0678 mutants [1]: 1 ng/mL (≈ 2.19 nM)
AUCt/12 h/MIC [2]: 95 fold
Cmax/MIC [2]: 314 fold
